Results taken from patent US10550105B2 (Ribon Therapeutics Inc., priority 2018, dated 2020).

Molecular target: PARP7 (Homo sapiens (Human), UniProt Q7Z3E1)
Assay: Enzymatic assay for inhibition of PARP7: TR-FRET displacement of biotinylated Probe A from the TIPARP active site
Assay type: binding
Conditions: Table A-1
Method in brief: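 Titrated compounds compete with the biotinylated probe; after an additional 30 min incubation at 25° C, time-delayed fluorescence (90 μs) is measured. Inhibition curves use a Hill coefficient that normally floats but may be held at 1.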

Chain of PARP7 (Q7Z3E1 whole entry): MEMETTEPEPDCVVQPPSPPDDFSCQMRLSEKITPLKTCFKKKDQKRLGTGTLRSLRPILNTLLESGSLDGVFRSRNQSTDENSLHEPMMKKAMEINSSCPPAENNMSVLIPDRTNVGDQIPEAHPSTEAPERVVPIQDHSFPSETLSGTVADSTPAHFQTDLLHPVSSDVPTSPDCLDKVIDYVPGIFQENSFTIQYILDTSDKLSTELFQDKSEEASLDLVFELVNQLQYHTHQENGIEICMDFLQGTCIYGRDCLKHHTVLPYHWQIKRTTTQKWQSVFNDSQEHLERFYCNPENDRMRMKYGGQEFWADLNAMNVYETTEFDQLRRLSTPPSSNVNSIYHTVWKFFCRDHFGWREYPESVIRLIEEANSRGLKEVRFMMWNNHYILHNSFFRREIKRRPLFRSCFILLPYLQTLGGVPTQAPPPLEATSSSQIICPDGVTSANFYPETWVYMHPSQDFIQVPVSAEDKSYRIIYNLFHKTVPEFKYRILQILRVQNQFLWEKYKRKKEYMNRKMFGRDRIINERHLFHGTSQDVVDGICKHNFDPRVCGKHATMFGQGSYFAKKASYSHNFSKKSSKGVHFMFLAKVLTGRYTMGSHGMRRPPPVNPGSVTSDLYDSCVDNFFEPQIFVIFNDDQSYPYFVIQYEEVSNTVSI

IC50 [nM] | SMILES
< 100 | N#Cc1ccc(N2CCN(C(=O)C3CC(OC[C@@H]4CCN(c5cn[nH]c(=O)c5C(F)(F)F)C4)C3)CC2)nc1 (stereo partly drawn) [Example 121A, 6-(4-((1R,3R)-3-((1-(6-oxo-5-(trifluoromethyl)-1,6-dihydropyridazin-4-yl)pyrrolidin-3-yl)methoxy)cyclobutanecarbonyl)piperazin-1-yl)nicotinonitrile]
< 100 | N#Cc1ccc(N2CCN(C(=O)[C@H]3C[C@@H](OC[C@H]4CCN(c5cn[nH]c(=O)c5C(F)(F)F)C4)C3)CC2)nc1 [Example 121B, 6-(4-((1S,3S)-3-((1-(6-oxo-5-(trifluoromethyl)-1,6-dihydropyridazin-4-yl)pyrrolidin-3-yl)methoxy)cyclobutanecarbonyl)piperazin-1-yl)nicotinonitrile]
< 100 | C[C@H](CC(=O)N1CCN(c2ccc(C#N)cn2)CC1)OC[C@@H]1CCCN1c1cn[nH]c(=O)c1C(F)(F)F [Example 123A, 6-[4-[(3R)-3-[[(2S)-1-[6-oxo-5-(trifluoromethyl)-1,6-dihydropyridazin-4-yl]pyrrolidin-2-yl]methoxy]butanoyl]piperazin-1-yl]pyridine-3-carbonitrile]
< 100 | C[C@@H](CC(=O)N1CCN(c2ccc(C#N)cn2)CC1)OC[C@@H]1CCCN1c1cn[nH]c(=O)c1C(F)(F)F [Example 123B, 6-[4-[(3S)-3-[[(2S)-1-[6-oxo-5-(trifluoromethyl)-1,6-dihydropyridazin-4-yl]pyrrolidin-2-yl]methoxy]butanoyl]piperazin-1-yl]pyridine-3-carbonitrile]
100 to 1000 | N#Cc1ccc(N2CCN(C(=O)N3CC[C@@H](OC[C@@H]4CCCN4c4cn[nH]c(=O)c4C(F)(F)F)C3)CC2)nc1 [Example 129A, 6-[4-[(3R)-3-[[(2S)-1-[6-oxo-5-(trifluoromethyl)-1,6-dihydropyridazin-4-yl]pyrrolidin-2-yl]methoxy]pyrrolidine-1-carbonyl]piperazin-1-yl]pyridine-3-carbonitrile]
< 100 | N#Cc1ccc(N2CCN(C(=O)N3CC[C@H](OC[C@@H]4CCCN4c4cn[nH]c(=O)c4C(F)(F)F)C3)CC2)nc1 [Example 129B, 6-[4-[(3S)-3-[[(2S)-1-[6-oxo-5-(trifluoromethyl)-1,6-dihydropyridazin-4-yl]pyrrolidin-2-yl]methoxy]pyrrolidine-1-carbonyl]piperazin-1-yl]pyridine-3-carbonitrile]

Further lines, the molecule ahead of its results:

SMILES | IC50 [nM]
N#Cc1ccc(N2CCC(NC(=O)CCOC[C@@H]3CCCN3c3cn[nH]c(=O)c3C(F)(F)F)C2)nc1 (stereo partly drawn) [Example 117, N-[1-(5-cyanopyridin-2-yl)pyrrolidin-3-yl]-3-[[(2S)-1-[6-oxo-5-(trifluoromethyl)-1,6-dihydropyridazin-4-yl]pyrrolidin-2-yl]methoxy]propanamide] | 100 to 1000
CC(C)(COC[C@@H]1CCCN1c1cn[nH]c(=O)c1C(F)(F)F)CC(=O)N1CCN(c2ccc(C#N)cn2)CC1 [Example 118, 6-[4-(3,3-dimethyl-4-[[(2S)-1-[6-oxo-5-(trifluoromethyl)-1,6-dihydropyridazin-4-yl]pyrrolidin-2-yl]methoxy]butanoyl)piperazin-1-yl]pyridine-3-carbonitrile] | < 100
N#Cc1ccc(N2CCN(C(=O)C#CCOC[C@@H]3CCCN3c3cn[nH]c(=O)c3C(F)(F)F)CC2)nc1 [Example 119, 6-[4-(4-[[(2S)-1-[6-oxo-5-(trifluoromethyl)-1,6-dihydropyridazin-4-yl]pyrrolidin-2-yl]methoxy]but-2-ynoyl)piperazin-1-yl]pyridine-3-carbonitrile] | < 100
CO[C@H]1C[C@@H](COCCC(=O)N2CCN(c3ccc(C#N)cn3)CC2)N(c2cn[nH]c(=O)c2C(F)(F)F)C1 [Example 122, 6-[4-(3-[[(2S,4S)-4-methoxy-1-[6-oxo-5-(trifluoromethyl)-1,6-dihydropyridazin-4-yl]pyrrolidin-2-yl]methoxy]propanoyl)piperazin-1-yl]pyridine-3-carbonitrile] | < 100
N#Cc1ccc(N2CCN(C(=O)COCCOCc3cccc4c3CN(c3cn[nH]c(=O)c3C(F)(F)F)C4)CC2)nc1 [Example 124, 6-(4-[2-[2-([2-[6-oxo-5-(trifluoromethyl)-1,6-dihydropyridazin-4-yl]-2,3-dihydro-1H-isoindol-4-yl]methoxy)ethoxy]acetyl]piperazin-1-yl)pyridine-3-carbonitrile] | < 100
N#Cc1ccc(N2CCN(C(=O)N3CC(OC[C@@H]4CCCN4c4cn[nH]c(=O)c4C(F)(F)F)C3)CC2)nc1 [Example 125, 6-[4-(3-[[(2S)-1-[6-oxo-5-(trifluoromethyl)-1,6-dihydropyridazin-4-yl]pyrrolidin-2-yl]methoxy]azetidine-1-carbonyl)piperazin-1-yl]pyridine-3-carbonitrile] | < 100
N#Cc1ccc(N2CCN(C(=O)NCCOC[C@@H]3CCCN3c3cn[nH]c(=O)c3C(F)(F)F)CC2)nc1 [Example 126, 4-(5-cyanopyridin-2-yl)-N-(2-[[(2S)-1-[6-oxo-5-(trifluoromethyl)-1,6-dihydropyridazin-4-yl]pyrrolidin-2-yl]methoxy]ethyl)piperazine-1-carboxamide] | < 100
N#Cc1ccc(N2CCN(C(=O)CCOC[C@@H]3CCCN3c3cn[nH]c(=O)c3C#N)CC2)nc1 [Example 127, 5-[(2S)-2-([3-[4-(5-cyanopyridin-2-yl)piperazin-1-yl]-3-oxopropoxy]methyl)pyrrolidin-1-yl]-3-oxo-2,3-dihydropyridazine-4-carbonitrile] | < 100
C[C@@H](COC[C@@H]1CCCN1c1cn[nH]c(=O)c1C(F)(F)F)CC(=O)N1CCN(c2ccc(C#N)cn2)CC1 [Example 128A] | < 100
C[C@H](COC[C@@H]1CCCN1c1cn[nH]c(=O)c1C(F)(F)F)CC(=O)N1CCN(c2ccc(C#N)cn2)CC1 [Example 128B] | < 100
N#Cc1ccc(N2CCN(C(=O)CCOCC3CCCCN3c3cn[nH]c(=O)c3C(F)(F)F)CC2)nc1 (centres unmarked) [Example 130, 6-[4-[3-([1-[6-oxo-5-(trifluoromethyl)-1,6-dihydropyridazin-4-yl]piperidin-2-yl]methoxy)propanoyl]piperazin-1-yl]pyridine-3-carbonitrile] | 100 to 1000
N#Cc1ccc(N2CCN(C(=O)CCOCC3CCCCN3c3cn[nH]c(=O)c3Br)CC2)nc1 (centres unmarked) [Example 131, 6-(4-(3-((1-(5-bromo-6-oxo-1,6-dihydropyridazin-4-yl)piperidin-2-yl)methoxy)propanoyl)piperazin-1-yl)nicotinonitrile] | 100 to 1000
N#Cc1ccc(N2CCN(C(=O)CCNC(=O)C[C@@H]3CCCN3c3cn[nH]c(=O)c3C(F)(F)F)CC2)nc1 [Example 132, N-[3-[4-(5-cyanopyridin-2-yl)piperazin-1-yl]-3-oxopropyl]-2-[(2S)-1-[6-oxo-5-(trifluoromethyl)-1,6-dihydropyridazin-4-yl]pyrrolidin-2-yl]acetamide] | 100 to 1000
N#Cc1ccc(N2CCN(C(=O)CCOC[C@@H]3C[C@H](C(F)(F)F)CN3c3cn[nH]c(=O)c3C(F)(F)F)CC2)nc1 [Example 133, 6-[4-(3-[[(2S,4S)-1-[6-oxo-5-(trifluoromethyl)-1,6-dihydropyridazin-4-yl]-4-(trifluoromethyl)pyrrolidin-2-yl]methoxy]propanoyl)piperazin-1-yl]pyridine-3-carbonitrile] | < 100
